Laboratory results from patent publication US20080287467A1, “Therapeutic Agent for Respiratory Diseases” (priority 2004, published 2008).
Where two headings read alike, the source gives them in different places.

System: swine bronchial smooth muscle cells
Assay: Patch cramp (whole-cell) measurement of membrane current and membrane potential, ATP-induced inward current
Assay type: cell-based
Excerpt: In the present specification, the patch cramp method is a method including allowing a glass micropipette (patch electrode) to attach tightly to cell membrane at a high resistance in giga-ohms (GΩ) or more and then measuring ion currents in conditions that a very small membrane region (patch membrane) on the top opening of the electrode is electrically isolated from other regions. In particular, the inventors measured and analyzed electric currents by the whole-cell mode including opening a hole by breaking the patch membrane to record ion current flowing through the whole cell membrane except the broken patch membrane.
Swine bronchial smooth muscle tissue was finely chopped and incubated at 37° C. for 40 minutes, using collagenase and papain, to isolate the cells.

Cc1nc(N=Nc2ccc(S(=O)(=O)O)cc2S(=O)(=O)O)c(COP(=O)(O)O)c(C=O)c1O [PPADS, pyridoxal phosphate-6-azophenyl-2′,4′-disulfonic acid]
suppression of the ATP-induced inward current (concentration not given): No suppression

Cc1ccc(C(=O)Nc2ccc(S(=O)(=O)O)c3cc(S(=O)(=O)O)cc(S(=O)(=O)O)c23)cc1NC(=O)c1cccc(NC(=O)Nc2cccc(C(=O)Nc3cc(C(=O)Nc4ccc(S(=O)(=O)O)c5cc(S(=O)(=O)O)cc(S(=O)(=O)O)c45)ccc3C)c2)c1 [suramin]
suppression of the ATP-induced inward current (concentration not given): No suppression

COc1ccc(CCCOC(Cn2ccnc2)c2ccc(OC)cc2)cc1 (stereo not shown) [SKF 96365]
suppression of the ATP-induced inward current: about 50%

COc1ccc2c(c1)CC[C@@H]1[C@@H]2CC[C@]2(C)[C@@H](NCCCCCCN3C(=O)C=CC3=O)CC[C@@H]12 [U-73122]
suppression of the ATP-induced inward current (treatment with 100 μM, subsequent ATP dosing): no suppression

ivermectin
enhancement of the ATP-induced inward current (FIG. 2): 3.5 fold

Nc1ncnc2c1ncn2[C@@H]1O[C@H](COP(=O)(O)OP(=O)(O)OP(=O)(O)O)[C@@H](O)[C@H]1O [ATP, adenosine-5′-triphosphate]
cellular membrane potential after depolarization due to ATP (electric current fixed, depolarized from −40 mV): −20 mV | membrane current on ATP administration (membrane potential maintained at −40 mV): inward current passed
